# Measurements published in patent publication US20240277798A1, “CYCLOSPORINE COMPOSITIONS AND METHODS OF USE” (Bacainn Biotherapeutics, Ltd., priority 2021, published 2024).
# Several values for one entry are separate records, joined by “and”; a condition that tells them apart may be missing. Equal values may be shown once.
# Legend:
# [1] = test system: human neutrophils; experiment: PMN transmigration assay (Salmonella typhimurium-infected T84 monolayer, HXA3/MRP2-driven neutrophil migration, MPO readout); type: cell-based
# Method: PMN transmigration assay. T84 colorectal cancer cells were grown to confluence on the bottom side of 12 well polycarbonate membrane inserts of a 24 well Transwell® plate. The confluent growth of these epithelial cells results in physiologically-relevant apical (luminal) and basolateral surfaces in the transwells. […] The monolayer was then infected on the apical surface with Salmonella typhimurium for 2 hours to induce hepoxilin A3 (HXA3) efflux through the MRP2 membrane protein and into the apical chamber. […] Freshly isolated and prepared human neutrophils were then added to the basolateral side and allowed to transmigrate through the monolayer for 2 hours. The number of neutrophils migrated to the apical chamber (due to the HXA3 gradient) was then assayed by determination of myeloperoxidase activity (a neutrophil biomarker). Inhibition of transmigration is indicated by lower MPO activity in the apical chamber.
# [2] = SGF FeSSIF stability; type: in vitro ADME; details: 10 μM, 37° C., 6 hours, predicted
# Method: SGF FeSSIF Stability Procedure. BT090 (10 μM) was incubated in duplicate at 37° C. for a total of 6 hours in simulated gastric fluid (SGF) (Ricca, Arlington, TX) and Fed State Simulated Intestinal Fluid (FeSSIF) (Biorelevant, London, UK). The reactions were initiated by spiking the test articles (1 mM water stock solutions) in their respective buffers. At selected time points (0, 0.5, 1, 2, 4, and 6 hours), a 50 μL aliquot was taken from the incubation mixtures and frozen at −80° C. At the end of the incubation period, 200 μL of 50:50 acetonitrile:water containing the internal standards (IS) were added to every tube and vortexed thoroughly. The 0 hour samples were prepared in pre-quenched SGF or FeSSIF. All quenched samples were then submitted to bioanalysis for LC-MS/MS quantification.
# (§1) Bioanalysis. BT090 samples were analyzed by LC-MS/MS using a Thermo Accela UPLC and a Thermo Q-Exactive mass spectrometer. The [M+H]+ adducts of the compounds and internal standards were monitored using positive mode electrospray ionization in exact mass mode. […]
# SGF FeSSIF Stability Procedure. […] All quenched samples are then submitted to bioanalysis for LC-MS/MS quantification.
# (§2) Bioanalysis. […] The [M+H]+ adducts of the compounds and internal standards are monitored using positive mode electrospray ionization in exact mass mode. […]
# [3] = Feces stability (rat feces homogenate); type: in vitro ADME, Sprague-Dawley rat; details: 10 μM, 37° C., 24 hours, predicted
# Method: Feces stability. Immediately prior to the study, male Sprague-Dawley rat feces were collected overnight over a mix of dry and wet ice. Feces were then homogenized in phosphate buffer at pH 6.5 and filtered to remove particles. BT090 ([…]) was incubated in duplicate at 37° C. for a total of 24 hours in the freshly prepared rat feces homogenate. At selected time points (0.5, 2, 6 and 24 hours), a 25 μL aliquot was taken from the incubation mixtures and quenched with 225 μL of acetonitrile containing the internal standards (IS). Samples were then centrifuged to pellet the precipitated proteins and the supernatants were diluted 5-fold. The 0 hour samples were prepared in pre-quenched feces homogenate towards the end of the incubation period. All quenched samples were then submitted to bioanalysis for LC-MS/MS quantification.
# as §1
# Feces stability. […] All quenched samples are then submitted to bioanalysis for LC-MS/MS quantification.
# as §2
# [4] = Rat PK, plasma concentrations after oral dosing; type: in vivo, Sprague-Dawley rats
# [5] = BT070 10 mg/kg orally, rat, individual animals, 10 mg/kg
# [6] = BT070 10 mg/kg orally, rat, mean
compound,measurement,setting,value
CC[C@@H]1NC(=O)[C@H]([C@H](O)[C@H](C)CCCCCC(=O)O)N(C)C(=O)[C@H](C(C)C)N(C)C(=O)[C@H](CC(C)C)N(C)C(=O)[C@H](CC(C)C)N(C)C(=O)[C@@H](C)NC(=O)[C@H](C)NC(=O)[C@H](CC(C)C)N(C)C(=O)[C@H](C(C)C)NC(=O)[C@H](CC(C)C)N(C)C(=O)CN(C)C1=O [BT070],dose-response of inhibition of neutrophil migration,"[1]; FIG. 1, result in words",dose-responsive inhibition
same,inhibition of neutrophil migration,"[1]; dose of 100 nM, result in words",exhibit inhibition
same,stability in simulated gastric fluid (SGF),[2],stable
same,stability in simulated intestinal fluid (FeSSIF),[2],stable
same,stability in fresh rat fecal homogenate,[3],stable
same,plasma concentration,"[4]; BT070 10 mg/kg orally, rat, 0.5 h, individual animals, 10 mg/kg",7472.8 ng/mL and 746.7 ng/mL and 2546.3 ng/mL
same,Mean plasma concentration,"[4]; BT070 10 mg/kg orally, rat, 0.5 h, mean",3588.6 ng/mL
same,plasma concentration,"[4]; BT070 10 mg/kg orally, rat, 1 h, individual animals, 10 mg/kg",4382.8 ng/mL and 725.2 ng/mL and 1796.5 ng/mL
same,Mean plasma concentration,"[4]; BT070 10 mg/kg orally, rat, 1 h, mean",2301.5 ng/mL
same,plasma concentration,"[4]; BT070 10 mg/kg orally, rat, 2 h, individual animals, 10 mg/kg",2238.3 ng/mL and 1114.4 ng/mL and 1215.5 ng/mL
same,Mean plasma concentration,"[4]; BT070 10 mg/kg orally, rat, 2 h, mean",1522.8 ng/mL
same,plasma concentration,"[4]; BT070 10 mg/kg orally, rat, 4 h, individual animals, 10 mg/kg",1178.8 ng/mL and 861.5 ng/mL and 448.5 ng/mL
same,Mean plasma concentration,"[4]; BT070 10 mg/kg orally, rat, 4 h, mean",829.6 ng/mL
same,plasma concentration,"[4]; BT070 10 mg/kg orally, rat, 6 h, individual animals, 10 mg/kg",641.5 ng/mL and 543.6 ng/mL and 280.0 ng/mL
same,Mean plasma concentration,"[4]; BT070 10 mg/kg orally, rat, 6 h, mean",488.3 ng/mL
same,plasma concentration,"[4]; BT070 10 mg/kg orally, rat, 8 h, individual animals, 10 mg/kg",312.1 ng/mL and 451.6 ng/mL and 118.1 ng/mL
same,Mean plasma concentration,"[4]; BT070 10 mg/kg orally, rat, 8 h, mean",293.9 ng/mL
same,plasma concentration,"[4]; BT070 10 mg/kg orally, rat, 24 h, individual animals, 10 mg/kg",12.0 ng/mL and 268.9 ng/mL and 22.8 ng/mL
same,Mean plasma concentration,"[4]; BT070 10 mg/kg orally, rat, 24 h, mean",101.2 ng/mL
same,% Extrapolation,[4]; [5],0.3% and 38.42% and 2.46%
same,AUCinf,[4]; [5],17616.8 ng/mL*h and 19158.4* ng/mL*h and 7432.0 ng/mL*h
same,AUClast,[4]; [5],17560.9 ng·h/mL and 11798.3 ng·h/mL and 7249.5 ng·h/mL
same,CL_F,[4]; [5],9.5 mL/min/kg and 8.7* mL/min/kg and 22.43 mL/min/kg
same,Cmax,[4]; [5],7472.8 ng/mL and 1114.4 ng/mL and 2546.3 ng/mL
same,tmax,[4]; [5],0.50 h (2×) and 2.00 h
same,"% Extrapolation, Mean",[4]; [6],13.7%
same,"AUCinf, Mean",[4]; [6],14735.7 ng·h/mL
same,"AUClast, Mean",[4]; [6],12202.9 ng·h/mL
same,"CL_F, Mean",[4]; [6],13.5 mL/min/kg
same,"Cmax, Mean",[4]; [6],3711.2 ng/mL
same,"M.R.T. po, Mean",[4]; [6],10.8 h
same,"tmax, Mean",[4]; [6],1.0 h
same,plasma concentration,"[4]; BT070 as breakdown product after BT051 10 mg/kg orally, rat, 0.5 h, individual animals",3.3 ng/mL and NQ (Not quantifiable. No peak or below limit of quantification (LOQ = 2.5 ng/mL)) (4×)
same,Mean plasma concentration,"[4]; BT070 as breakdown product after BT051 10 mg/kg orally, rat, 0.5 h, mean",3.3 ng/mL
same,plasma concentration,"[4]; BT070 as breakdown product after BT051 10 mg/kg orally, rat, 1 h, individual animals",NQ (Not quantifiable. No peak or below limit of quantification (LOQ = 2.5 ng/mL))
same,plasma concentration,"[4]; BT070 as breakdown product after BT051 10 mg/kg orally, rat, 2 h, individual animals",NQ (Not quantifiable. No peak or below limit of quantification (LOQ = 2.5 ng/mL))
same,plasma concentration,"[4]; BT070 as breakdown product after BT051 10 mg/kg orally, rat, 4 h, individual animals",NQ (Not quantifiable. No peak or below limit of quantification (LOQ = 2.5 ng/mL))
same,plasma concentration,"[4]; BT070 as breakdown product after BT051 10 mg/kg orally, rat, 6 h, individual animals",NQ (Not quantifiable. No peak or below limit of quantification (LOQ = 2.5 ng/mL))
same,plasma concentration,"[4]; BT070 as breakdown product after BT051 10 mg/kg orally, rat, 8 h, individual animals",NQ (Not quantifiable. No peak or below limit of quantification (LOQ = 2.5 ng/mL))
same,plasma concentration,"[4]; BT070 as breakdown product after BT051 10 mg/kg orally, rat, 24 h, individual animals",NQ (Not quantifiable. No peak or below limit of quantification (LOQ = 2.5 ng/mL))
same,Cmax,"[4]; BT070 as breakdown product after BT051 10 mg/kg orally, rat, individual animals",3.3 ng/mL
same,"Cmax, Mean","[4]; BT070 as breakdown product after BT051 10 mg/kg orally, rat, mean",3.3 ng/mL
same,oral bioavailability of the breakdown product,"[4]; BT070 following oral administration of BT051 in rats at 10 mg/kg, result in words",not orally bioavailable
same,detectability in plasma,"[4]; rats, 10 mg/kg orally, result in words",present in the plasma in all subject rats from 15 minutes to 24 hours
